# Source: US6743630B2, “Method of preparing a protein array based on biochemical protein-protein interaction” (The Trustees of Columbia University in the City of New York, priority 2002, dated 2004)
# No end group written: not given here.
# Test system: Fas/FAP-1 binding
# Assay: In vitro inhibition assay of Fas/FAP-1 binding (GST-Fas, 35S-labeled FAP-1)
# Conditions: 15-mer peptide 1-1000 μM; human PAMP 1 mM; peptides acetylated
# Protocol: 3A. Inhibition assay of Fas/FAP-1 binding using the C-terminal 15 amino acids of Fas. GST-Fas fusion protein (191-355) was used for in vitro binding assay (lane 1, 3-10). GST-Fas fusion protein (191-320) (lane 2) and 1 mM human PAMP (N-terminal 20 amino acids of proadrenomedullin, M. W. 2460.9) (lane 3) were used as negative controls. The concentrations of the C-terminal 15 amino acids added were 1 (lane 4), 3 (lane 5), 10 (lane 6), 30 (lane 7), 100 (lane 8), 300 (lane 9), and 1000 μM (lane 10).
# HFAP-10 cDNA (Sato, et al. 1995) subcloned into the Bluescript vector pSK-II (Stratagene) was in vitro-translated from an internal methionine codon in the presence of ^35S-L-methionine using a coupled in vitro transcription/translation system (Promega, TNT lysate) and T7 RNA polymerase. […] After washing vigorously 4 times in the same buffer, associated proteins were recovered with the glutathione-Sepharose beads by centrifugation, eluted into boiling Laemmli buffer, and analyzed by SDS-PAGE and fluorography.
# In vitro-translated [^35S ]HFAP-1 was purified with a NAP-5 column (Pharmacia) and incubated with 3 μM of GST-fusion proteins for 16 hours at 4° C. After washing 4 times in the binding buffer, radioactivity incorporation was determined in a β counter. […]
# Sequence of Fas/FAP-1 binding (Q12923 1361-1456 limits assumed): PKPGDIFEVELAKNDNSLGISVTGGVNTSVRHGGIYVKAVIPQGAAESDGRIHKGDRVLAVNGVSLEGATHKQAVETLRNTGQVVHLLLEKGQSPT
row,Substance,inhibitory effect on binding of in vitro-translated FAP-1 to GST-Fas
1,"human PAMP peptide: N-terminal 20 amino acids of proadrenomedullin, negative control (ARLDVASEFRKKWNKWALSR; ends and bridges not checked; UniProt P35318 22-41, looked up)",no effect
2,synthetic 15 amino acids of Fas: synthetic peptide of the C-terminal 15 amino acids of Fas (Ac-DSENSNFRNEIQSLV),dramatically reduced and dependent on the concentration
